The results in this text go back to US20080131534A1, “USE OF A PLANT EXTRACT OR PLANT JUICE” (Melbrosin International Produktions- und Vertriebs GesmbH & …, priority 2006, published 2008).

Broadly, the EC50 is the concentration giving half of the maximal effect.

Where two headings read alike, the source gives them in different places.

This assay addresses T1, PPAR-gamma (Homo sapiens, UniProt P37231).
T1 construct: purchased Invitrogen
T1 sequence (P37231 238-503 limits assumed): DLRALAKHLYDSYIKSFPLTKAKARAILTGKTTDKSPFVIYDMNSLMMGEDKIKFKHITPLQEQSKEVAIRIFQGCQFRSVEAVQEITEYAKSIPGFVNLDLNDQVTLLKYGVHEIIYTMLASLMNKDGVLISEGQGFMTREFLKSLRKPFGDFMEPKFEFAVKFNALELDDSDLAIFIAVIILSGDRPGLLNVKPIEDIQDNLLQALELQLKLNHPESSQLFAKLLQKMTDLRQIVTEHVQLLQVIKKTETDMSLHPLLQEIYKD
Put plainly: Polar Screen PPAR Competitive Assay (fluorescence polarization ligand binding). For orientation: Polarisation of emitted light reports the rotation of a fluorescent probe.

The mark [1] stands for this setting: Table 1, result in words, *tested to a concentration of 0.1 M.
The mark [2] stands for this setting: Table 1, tested substances, read-out: EC50.
The mark [3] stands for this setting: Table 3, active substances in Oregano, read-out: EC50.

Protocol: The clear supernatant was further diluted by DMSO and then binding to PPARγwas tested by Peroxisome Proliferator-Activated Receptor-gamma Competitor Assay Kit, Green (Invitrogen, Carlsbad, Calif.).
PPAR-gamma-LBD and the fluorescent PPAR-gamma ligand (Fluormone™ PPAR Green) form a PPAR-gamma-LBD/Fluormone™ PPAR-gamma Green complex which has a high polarization value. If a competitor of PPAR-gamma is added the fluorescent ligand is displaced. This causes that the Fluoromone is free in solution and tumbles rapidly during its fluorescence lifetime which results in a low polarisation value.
1 μl of test compounds, which was dissolved and diluted in DMSO, was transferred into a microwell plate. Complete screening buffer was prepared by addition of 0.5 μl DTT (1M) to 1 ml PPAR Green Screening Buffer. 19 μl of this buffer was added to each well of microwell plate. […] 20 μl of this solution was added to each well. The plate is covered to protect the reagents from light and incubated for two hours at room temperature.
Data of the ligand binding assay were calculated in the following way: Polarization values were plotted against the concentration of test compound. The curve was fitted using a logistic dose-response model from Table Curve 2D software (Jandel Scientific). The used function was:

For the molecule `CCCCCC(C)=O` [2-Heptanon], the EC50 entry under setting [1] was “does not bind*”.

Take `O=C(/C=C/c1ccccc1O)c1ccccc1` [2-Hydroxychalcone]: the EC50 under setting [2] was 2.9 µM.

`O=C(/C=C/c1ccccc1)c1ccccc1O` [2′-Hydroxychalcone] yielded an EC50 of 20 µM.

On to `O=C(/C=C/c1ccccc1)c1ccccc1O` [2′-OH-Chalcone], for which the EC50 entry (Table 1, result in words) is reported as “does not bind”.

For the molecule `O=c1c(O)c(-c2ccccc2)oc2ccccc12` [3-Hydroxyflavon], under setting [2], the EC50 was more than 500 µM.

Regarding `O=c1cc(-c2ccc(O)cc2)oc2cc(OC3O[C@H](CO)[C@@H](O)[C@H](O)[C@H]3O)cc(O)c12` (stereo partly shown) [Apigenin-7Glycoside], under setting [3], the concentration for a half-maximal effect (EC50) is more than 500 µM.

On to `O=c1cc(-c2ccc(O)cc2)oc2cc(O)cc(O)c12` [Apigenin], for which the EC50 was determined as 104 µM under setting [2] and 104 µM under setting [3].

As for `COc1ccc(-c2coc3cc(O)cc(O)c3c2=O)cc1` [Biochanin A], the EC50 came to 20 µM under setting [2] and 20 µM under setting [3].

In the case of `O=C(Nc1ccccc1)c1cc([N+](=O)[O-])ccc1Cl` [CW9662, 2-Chloro-5-nitrobenanilide, reference compound], the EC50 under setting [2] is 0.0107 µM.

As to `O=C(O)/C=C/c1ccc(O)c(O)c1` [Caffeic acid], under setting [1], the EC50 entry is “does not bind*”.

Take `COc1cc(CNC(=O)CCCC/C=C/C(C)C)ccc1O` [Capsaicin]: the EC50 under setting [2] was more than 500 µM.

Consider `O=CC=Cc1ccccc1` [Cinnamaldehyde], for which the EC50 under setting [2] stood at 10.4 µM.

`O=c1oc2cc(O)ccc2c2oc3cc(O)ccc3c12` [Coumestrol]: the EC50 under setting [2] turned out to be 8.5 µM.

On to `COc1cc(/C=C/C(=O)CC(=O)/C=C/c2ccc(O)c(OC)c2)ccc1O` [Curcumin], for which the EC50 entry (Table 1, result in words) is reported as “does not bind”.

On to `O=c1c(-c2ccc(O)cc2)coc2cc(O)ccc12` [Daidzein], for which, under setting [2], the EC50 amounted to 470 µM.

For `O=c1c(-c2ccc(O)cc2)coc2cc(O[C@@H]3O[C@H](CO)[C@@H](O)[C@H](O)[C@H]3O)ccc12` [Daidzin], the EC50 entry under setting [1] is recorded as “does not bind*”.

For the molecule `C=CCSCC=C` [Diallylsulfide], the EC50 entry under setting [1] is “does not bind*”.

Regarding `COc1ccc(-c2cc(=O)c3c(O)cc(O[C@@H]4O[C@H](CO[C@@H]5O[C@@H](C)[C@H](O)[C@@H](O)[C@H]5O)[C@@H](O)[C@H](O)[C@H]4O)cc3o2)cc1O` [Diosmin], the EC50 entry under setting [1] is recorded as “does not bind*”.

Regarding `OC[C@H](Cc1cccc(O)c1)[C@H](CO)Cc1cccc(O)c1` [Enterodiol], the EC50 under setting [2] is more than 500 µM.

Take `O=C1OC[C@H](Cc2cccc(O)c2)[C@H]1Cc1cccc(O)c1` [Enterolacton]: the EC50 under setting [2] is more than 500 µM.

With `Oc1cc(O)c2c(c1)O[C@H](c1ccc(O)c(O)c1)[C@H](O)C2` [Epicatechin], the EC50 under setting [2] is more than 500 µM.

Turning to `Oc1ccc([C@H]2COc3cc(O)ccc3C2)cc1` [Equol], the EC50 under setting [2] is 60 µM.

`O=C1C[C@@H](c2ccc(O)c(O)c2)Oc2cc(O)cc(O)c21` [Eriodictyol]: the EC50 under setting [2] was 66 µM and the EC50 under setting [3] was 66 µM.

In the case of `C[C@]12CC[C@@H]3c4ccc(O)cc4CC[C@H]3[C@@H]1CCC2=O` [Estron], the EC50 entry under setting [1] was “does not bind*”.

As to `CCOC(=O)C=Cc1ccccc1` [Ethylcinnamate], the EC50 under setting [2] worked out at 2700 µM.

Regarding `C=CCc1ccc(O)c(OC)c1` [Eugenol], the EC50 under setting [2] was 420 µM.

For the molecule `COc1cc(/C=C/C(=O)O)ccc1O` [Ferrulic acid], under “Table 1, result in words”, the EC50 entry was “does not bind”.

As for `COc1ccc(-c2coc3cc(O)ccc3c2=O)cc1` [Formononetin], under setting [1], the EC50 result is “does not bind*”.

In the case of `O=c1c(O)c(-c2ccccc2)oc2cc(O)cc(O)c12` [Galangin], the EC50 under setting [2] amounted to 143 µM.

Molecule `O=C(O)c1cc(O)c(O)c(O)c1` [Gallic acid] came in with an EC50 of 128 µM.

As to `O=c1c(-c2ccc(O)cc2)coc2cc(O)cc(O)c12` [Genistein], a half-maximal response (EC50) required 22 µM.

As to `O=c1c(-c2ccc(O)cc2)coc2cc(O[C@@H]3O[C@H](CO)[C@@H](O)[C@H](O)[C@H]3O)cc(O)c12` [Genistin], under setting [1], the EC50 entry is on record as “does not bind*”.

Take `COc1ccc([C@@H]2CC(=O)c3c(O)cc(O[C@@H]4O[C@H](CO[C@@H]5O[C@@H](C)[C@H](O)[C@@H](O)[C@H]5O)[C@@H](O)[C@H](O)[C@H]4O)cc3O2)cc1O` [Hesperidin]: the EC50 under setting [2] is more than 500 µM.

For `O=c1c(O[C@@H]2O[C@H](CO)[C@H](O)[C@H](O)[C@H]2O)c(-c2ccc(O)c(O)c2)oc2cc(O)cc(O)c12` [Hyperoside], the EC50 entry (Table 1, result in words) is “does not bind”.

On to `OCc1c[nH]c2ccccc12` [Indol-3-Carbinol], for which, under setting [2], the EC50 is more than 500 µM.

In the case of `O=c1c(OC2OC(CO)C(O)C(O)C2O)c(-c2ccc(O)c(O)c2)oc2cc(O)cc(O)c12` (stereo not shown) [Isoquercetrin], the EC50 was 52 µM under setting [2] and 53 µM under setting [3].

Regarding `O=c1c(O)c(-c2ccc(O)cc2)oc2cc(O)cc(O)c12` [Kaempferol], the EC50 is 467 µM under setting [2] and 467 µM under setting [3].

Turning to `C=CC(C)(O)CCC=C(C)C` (stereo not shown) [Linalool], the EC50 entry under setting [1] was “does not bind*”.

Take `O=c1cc(-c2ccc(O)c(O)c2)oc2cc(O)cc(O)c12` [Luteolin]: the EC50 is, setting by setting: under setting [2], 4 µM; under setting [3], 4 µM.

In the case of `O=c1c(O)c(-c2cc(O)c(O)c(O)c2)oc2cc(O)cc(O)c12` [Myricetin], under setting [2], the EC50 came to 53 µM.

Take `O=C1C[C@@H](c2ccc(O)cc2)Oc2cc(O)cc(O)c21` [Narigenin]: under setting [3], the concentration for a half-maximal effect (EC50) was determined as 81 µM.

With `CC(C(=O)c1ccc(O)cc1O)c1ccc(O)cc1` (stereo not shown) [ODMA, O-Desmethyl-angolenain], the EC50 under setting [2] is 67 µM.

With `C=CC(C)=CCC=C(C)C` [Ocimene], the EC50 result under setting [1] was “does not bind*”.

As to `COc1ccc(-c2coc3cc(O[C@@H]4O[C@H](CO)[C@@H](O)[C@H](O)[C@H]4O)ccc3c2=O)cc1` [Ononin], the EC50 result under setting [1] is recorded as “does not bind*”.

On to `O=C(CCc1ccc(O)cc1)c1c(O)cc(O)cc1O` [Phloretin], for which, under setting [2], the EC50 was determined as 20 µM.

For the molecule `O=C(CCc1ccc(O)cc1)c1c(O)cc(O)cc1O[C@@H]1O[C@H](CO)[C@@H](O)[C@H](O)[C@H]1O` [Phloridzin], the EC50 under setting [2] is more than 500 µM.

On to `Oc1cc(O)c2c(c1)O[C@H](c1ccc(O)c(O)c1)[C@H](O)[C@H]2c1c(O)cc(O)c2c1O[C@H](c1ccc(O)c(O)c1)[C@H](O)C2` [Procyanidin B2], for which the EC50 result under setting [1] is reported as “does not bind*”.

Consider `O=C(O)c1ccc(O)c(O)c1` [Protocatechuic acid], for which, under setting [1], the EC50 entry was “does not bind*”.

As to `COc1cc(O)c2c(=O)c(-c3ccc(O)cc3)coc2c1` [Prunetin], under setting [1], the EC50 result was “does not bind*”.

As to `O=c1c(-c2ccc(O)cc2)coc2c([C@@H]3O[C@H](CO)[C@@H](O)[C@H](O)[C@H]3O)c(O)ccc12` [Puerarin], the EC50 result under setting [1] is on record as “does not bind*”.

Take `O=c1c(O)c(-c2ccc(O)c(O)c2)oc2cc(O)cc(O)c12` [Quercetin]: the EC50 came out at 2.6 µM under setting [2] and 2.6 µM under setting [3].

For the molecule `O=C(/C=C/c1ccc(O)c(O)c1)O[C@H](Cc1ccc(O)c(O)c1)C(=O)O` [Rosmarinic acid], the EC50 is, setting by setting: under setting [2], 7.8 µM; under setting [3], 7.8 µM.

With `C=CCc1ccc2c(c1)OCO2` [Safrol], the EC50 was 2250 µM.

For `O=C(/C=C/c1ccc(O)c2c1[C@H](C(=O)O[C@H](Cc1ccc(O)c(O)c1)C(=O)O)[C@@H](c1ccc(O)c(O)c1)O2)O[C@H](Cc1ccc(O)c(O)c1)C(=O)O` [Salvianolic acid B], the EC50 under setting [3] turned out to be 292 µM.

In the case of `c1cc2c(cc1[C@H]1OC[C@H]3[C@@H]1CO[C@@H]3c1ccc3c(c1)OCO3)OCO2` [Sesamin], the EC50 entry (Table 1, result in words) is “does not bind”.

Take `COc1ccc(-c2coc3cc(O[C@@H]4O[C@H](CO)[C@@H](O)[C@H](O)[C@H]4O)cc(O)c3c2=O)cc1` [Sissotrin]: the EC50 entry under setting [1] is “does not bind*”.

Regarding `O=C1c2c(O)cc(O)cc2O[C@H](c2ccc(O)c(O)c2)[C@H]1O` [Taxifolin], under setting [3], the EC50 was 275 µM.

Take `Cc1ccc(C(C)C)c(O)c1` [Thymol]: a half-maximal effect (EC50, Table 1, tested substances) (EC50) was put at 695 µM and the EC50 (EC50, Table 3, active substances in Oregano) turned out to be 695 µM.

`C[C@H]1[C@H](C)CC[C@]2(C(=O)O)CC[C@]3(C)C(=CC[C@@H]4[C@@]5(C)CC[C@H](O)C(C)(C)[C@@H]5CC[C@]43C)[C@H]12` [Ursolsäure]: under setting [3], the EC50 is more than 500 µM.

With `COc1cc(C(=O)O)ccc1O` [Vanillic acid], under setting [3], the EC50 is more than 500 µM.

Consider `O=c1cc(-c2ccc(O)cc2)oc2c([C@@H]3O[C@H](CO)[C@@H](O)[C@H](O)[C@H]3O)c(O)cc(O)c12` [Vitexin], for which, under setting [3], the EC50 turned out to be 156 µM.

Take `O=C(O)/C=C/c1ccccc1O` [o-Coumaric acid]: under setting [1], the EC50 entry is on record as “does not bind*”.

In the case of `O=C(O)/C=C/c1ccc(O)cc1` [p-Coumaric acid], the EC50 under setting [2] is more than 500 µM and the EC50 under setting [3] is more than 500 µM.

On to `Cc1ccc(C(C)C)cc1` [p-Cymene], for which the EC50 entry under setting [1] is reported as “does not bind*”.

Consider `C/C1=C\CC/C(C)=C/CC(C)(C)/C=C/C1` [α-Humulene], for which the EC50 entry under setting [1] was “does not bind*”.

Turning to `C=C1CC/C=C(\C)CC[C@@H]2[C@@H]1CC2(C)C` [β-Caryophyllene], the EC50 entry under setting [1] was “does not bind*”.
